{
  "source": "paper PMC5218480",
  "about": "(PLoS ONE, 2017)",
  "tested_on": "MV-4-11 cells",
  "experiment": "Gene expression microarray analysis (Affymetrix PrimeView) and GSEA",
  "assay_type": "cell-based, human",
  "set-up": "RFU PODN (11730768_x_at) / Fold change /veh PODN (11730768_x_at) / RFU LINC00158 (11744669_a_at) / Fold change /veh LINC00158 (11744669_a_at) / RFU DUSP10 (11751237_a_at) / Fold change /veh DUSP10 (11751237_a_at) / RFU ID3 (11757404_x_at) / Fold change /veh ID3 (11757404_x_at) / RFU PLEKHG5 (11737974_s_at) / Fold change /veh PLEKHG5 (11737974_s_at) / RFU LRRC4B (11730491_at) / Fold change /veh LRRC4B (11730491_at) / RFU GIMAP4 (11747438_a_at) / Fold change /veh GIMAP4 (11747438_a_at) / RFU KRT8 (11758183_x_at) / Fold change /veh KRT8 (11758183_x_at) / RFU CNN1 (11734310_a_at) / Fold change /veh CNN1 (11734310_a_at) / RFU VPS37D (11726825_at) / Fold change /veh VPS37D (11726825_at) / RFU C10orf10 (11716522_x_at) / Fold change /veh C10orf10 (11716522_x_at) / RFU KIR2DL2 /// KIR2DL4 /// KIR2DL5A /// KIR2DL5B /// KIR2DS1 /// KIR2DS2 /// KIR2DS3 /// KIR2DS4 /// KIR3DL3 /// KIR3DL3 /// KIR3DS1 (11738374_at) / Fold change /veh KIR2DL2 /// KIR2DL4 /// KIR2DL5A /// KIR2DL5B /// KIR2DS1 /// KIR2DS2 /// KIR2DS3 /// KIR2DS4 /// KIR3DL3 /// KIR3DL3 /// KIR3DS1 (11738374_at) / RFU C1QL1 (11718748_at) / Fold change /veh C1QL1 (11718748_at) / RFU TMPRSS4 (11747572_a_at) / Fold change /veh TMPRSS4 (11747572_a_at) / RFU HAMP (11756126_x_at) / Fold change /veh HAMP (11756126_x_at) / RFU RNFT2 (11725882_a_at) / Fold change /veh RNFT2 (11725882_a_at) / RFU NR4A2 (11747474_a_at) / Fold change /veh NR4A2 (11747474_a_at) / RFU ABCC12 (11746883_a_at) / Fold change /veh ABCC12 (11746883_a_at) / RFU TMEM136 (11760407_x_at) / Fold change /veh TMEM136 (11760407_x_at) / RFU CLDN22 /// WWC2 (11732394_at) / Fold change /veh CLDN22 /// WWC2 (11732394_at) / RFU HLA-DPB1 (11760878_x_at) / Fold change /veh HLA-DPB1 (11760878_x_at) / RFU SPINT1 (11716480_a_at) / Fold change /veh SPINT1 (11716480_a_at) / RFU GAP43 (11754022_s_at) / Fold change /veh GAP43 (11754022_s_at) / RFU A4GNT (11735810_at) / Fold change /veh A4GNT (11735810_at) / RFU PRB3 (11715151_x_at) / Fold change /veh PRB3 (11715151_x_at) / RFU TUBB4B (11761932_at) / Fold change /veh TUBB4B (11761932_at) / RFU CAPN14 (11732068_a_at) / Fold change /veh CAPN14 (11732068_a_at) / RFU TMCC2 (11721928_a_at) / Fold change /veh TMCC2 (11721928_a_at) / RFU IRGQ (11745062_a_at) / Fold change /veh IRGQ (11745062_a_at) / RFU FAM174B (11720279_a_at) / Fold change /veh FAM174B (11720279_a_at) / RFU TMPRSS4 (11748680_a_at) / Fold change /veh TMPRSS4 (11748680_a_at) / RFU FAM212B (11763350_a_at) / Fold change /veh FAM212B (11763350_a_at) / RFU PLEKHG5 (11743358_a_at) / Fold change /veh PLEKHG5 (11743358_a_at) / RFU ZSCAN30 (11745921_a_at) / Fold change /veh ZSCAN30 (11745921_a_at) / RFU CMKLR1 (11741424_a_at) / Fold change /veh CMKLR1 (11741424_a_at) / RFU LOC101060620 /// MAPK8IP1 (11723275_at) / Fold change /veh LOC101060620 /// MAPK8IP1 (11723275_at) / RFU SPTSSB (11747773_x_at) / Fold change /veh SPTSSB (11747773_x_at) / RFU PRSS12 (11739890_at) / Fold change /veh PRSS12 (11739890_at) / RFU BIN1 (11741810_x_at) / Fold change /veh BIN1 (11741810_x_at) / RFU WNT11 (11732464_a_at) / Fold change /veh WNT11 (11732464_a_at) / RFU C10orf10 (11716521_a_at) / Fold change /veh C10orf10 (11716521_a_at) / RFU C5orf56 (11738089_at) / Fold change /veh C5orf56 (11738089_at) / RFU CYB561 (11721691_x_at) / Fold change /veh CYB561 (11721691_x_at) / RFU ANKRD19P (11752326_a_at) / Fold change /veh ANKRD19P (11752326_a_at) / RFU OR2T12 /// OR2T33 /// OR2T8 (11738714_s_at) / Fold change /veh OR2T12 /// OR2T33 /// OR2T8 (11738714_s_at) / RFU VCAN (11748164_a_at) / Fold change /veh VCAN (11748164_a_at) / RFU JSRP1 (11732532_at) / Fold change /veh JSRP1 (11732532_at) / RFU KRTAP10-11 (11738290_x_at) / Fold change /veh KRTAP10-11 (11738290_x_at) / RFU MYO3A (11730013_a_at) / Fold change /veh MYO3A (11730013_a_at) / RFU EBF3 (11725865_a_at) / Fold change /veh EBF3 (11725865_a_at) / RFU CAMK2N1 (11719241_x_at) / Fold change /veh CAMK2N1 (11719241_x_at) / RFU C5orf56 (11738088_a_at) / Fold change /veh C5orf56 (11738088_a_at) / RFU OLFML3 (11715873_a_at) / Fold change /veh OLFML3 (11715873_a_at) / RFU LOC100653217 /// NTM (11731650_a_at) / Fold change /veh LOC100653217 /// NTM (11731650_a_at) / RFU MAPK11 (11762145_a_at) / Fold change /veh MAPK11 (11762145_a_at) / RFU FIZ1 (11724087_x_at) / Fold change /veh FIZ1 (11724087_x_at) / RFU OASL (11726364_x_at) / Fold change /veh OASL (11726364_x_at) / RFU SOX15 (11748057_x_at) / Fold change /veh SOX15 (11748057_x_at) / RFU CD79A (11719716_a_at) / Fold change /veh CD79A (11719716_a_at) / RFU HIST1H1D (11736915_at) / Fold change /veh HIST1H1D (11736915_at) / RFU CASKIN2 (11723855_a_at) / Fold change /veh CASKIN2 (11723855_a_at) / RFU LOC730098 (11760151_x_at) / Fold change /veh LOC730098 (11760151_x_at) / RFU OR4N2 (11742367_at) / Fold change /veh OR4N2 (11742367_at) / RFU PRRT2 (11749266_a_at) / Fold change /veh PRRT2 (11749266_a_at) / RFU SNX32 (11753110_a_at) / Fold change /veh SNX32 (11753110_a_at) / RFU CDHR5 (11726645_a_at) / Fold change /veh CDHR5 (11726645_a_at) / RFU RCAN1 (11760418_a_at) / Fold change /veh RCAN1 (11760418_a_at) / RFU FAM167A (11723789_a_at) / Fold change /veh FAM167A (11723789_a_at) / RFU FAM26E (11764081_at) / Fold change /veh FAM26E (11764081_at) / RFU ISYNA1 (11749810_s_at) / Fold change /veh ISYNA1 (11749810_s_at) / RFU ACY1 (11761880_at) / Fold change /veh ACY1 (11761880_at) / RFU 11764098_at / Fold change /veh 11764098_at / RFU SAMD14 (11745864_x_at) / Fold change /veh SAMD14 (11745864_x_at) / RFU NPB (11741838_a_at) / Fold change /veh NPB (11741838_a_at) / RFU TMPRSS6 (11731388_a_at) / Fold change /veh TMPRSS6 (11731388_a_at) / RFU KRTAP10-2 (11738614_at) / Fold change /veh KRTAP10-2 (11738614_at) / RFU ARHGAP8 /// PRR5-ARHGAP8 (11727945_x_at) / Fold change /veh ARHGAP8 /// PRR5-ARHGAP8 (11727945_x_at) / RFU KRTAP5-7 /// NADSYN1 (11734609_at) / Fold change /veh KRTAP5-7 /// NADSYN1 (11734609_at) / RFU RASL12 (11751679_a_at) / Fold change /veh RASL12 (11751679_a_at) / RFU CDKN2B (11736163_a_at) / Fold change /veh CDKN2B (11736163_a_at) / RFU PRF1 (11729649_at) / Fold change /veh PRF1 (11729649_at) / RFU, ZNF638 /// ZNF638-IT1 / Fold change vs veh, ZNF638 /// ZNF638-IT1 / RFU, PANK3 / Fold change vs veh, PANK3 / RFU, SH3YL1 / Fold change vs veh, SH3YL1 / RFU, ZEB2 / Fold change vs veh, ZEB2 / RFU, NRIP1 / Fold change vs veh, NRIP1 / RFU, PTTG1IP / Fold change vs veh, PTTG1IP / RFU, CAPN2 / Fold change vs veh, CAPN2 / RFU, MED14 / Fold change vs veh, MED14 / RFU, SNORA58 / Fold change vs veh, SNORA58 / RFU, C1orf63 / Fold change vs veh, C1orf63 / RFU, LRRFIP1 / Fold change vs veh, LRRFIP1 / RFU, NDUFAF7 / Fold change vs veh, NDUFAF7 / RFU, SLC12A2 / Fold change vs veh, SLC12A2 / RFU, IBTK / Fold change vs veh, IBTK / RFU, ESF1 / Fold change vs veh, ESF1 / Fold change vs veh, TMEM50B / RFU, TAOK1 / Fold change vs veh, TAOK1 / RFU, ACBD3 / Fold change vs veh, ACBD3 / RFU, TMA16 / Fold change vs veh, TMA16 / RFU, RWDD3 / Fold change vs veh, RWDD3 / RFU, BCAT1 / Fold change vs veh, BCAT1 / RFU, EDEM3 / Fold change vs veh, EDEM3 / RFU, TMEM33 / Fold change vs veh, TMEM33 / RFU, WDR75 / Fold change vs veh, WDR75 / RFU, AHCTF1 / Fold change vs veh, AHCTF1 / RFU, TFRC / Fold change vs veh, TFRC / RFU, ZDHHC17 / Fold change vs veh, ZDHHC17 / RFU, NOM1 / Fold change vs veh, NOM1 / RFU, ARL8B / Fold change vs veh, ARL8B / RFU, ZBTB11 / Fold change vs veh, ZBTB11 / RFU, TAMM41 / Fold change vs veh, TAMM41 / RFU, KIAA1704 /// LOC100996395 / Fold change vs veh, KIAA1704 /// LOC100996395 / RFU, ING1 / Fold change vs veh, ING1 / RFU, TRMT61B / Fold change vs veh, TRMT61B / RFU, FUBP3 / Fold change vs veh, FUBP3 / RFU, TP53 / Fold change vs veh, TP53 / RFU, TNKS2 / Fold change vs veh, TNKS2 / RFU, ZFP14 / Fold change vs veh, ZFP14 / RFU, ACTR2 / Fold change vs veh, ACTR2 / RFU, PPP3R1 / Fold change vs veh, PPP3R1 / RFU, PIK3R1 / Fold change vs veh, PIK3R1 / RFU, HNRNPA1 / Fold change vs veh, HNRNPA1 / RFU, RNF170 / Fold change vs veh, RNF170 / RFU, ZNF28 / Fold change vs veh, ZNF28 / RFU, RNGTT / Fold change vs veh, RNGTT / RFU, OGT / Fold change vs veh, OGT / RFU, BRD1 / Fold change vs veh, BRD1 / RFU, MARS / Fold change vs veh, MARS / RFU, ZNF655 / Fold change vs veh, ZNF655 / RFU, FAHD1 / Fold change vs veh, FAHD1 / RFU, BDP1 / Fold change vs veh, BDP1 / RFU, LRRCC1 / Fold change vs veh, LRRCC1 / RFU, ARID1A / Fold change vs veh, ARID1A / RFU, ZNF146 / Fold change vs veh, ZNF146 / RFU, ZNF330 / Fold change vs veh, ZNF330 / RFU, GPN3 / Fold change vs veh, GPN3 / RFU, C9orf123 / Fold change vs veh, C9orf123 / RFU, N4BP2L2 / Fold change vs veh, N4BP2L2 / RFU, ARFIP1 / Fold change vs veh, ARFIP1 / RFU, FAM179B / Fold change vs veh, FAM179B / RFU, BCL10 / Fold change vs veh, BCL10 / RFU, UHRF1BP1L / Fold change vs veh, UHRF1BP1L / RFU, BET1 / Fold change vs veh, BET1 / RFU, CNOT2 / Fold change vs veh, CNOT2 / RFU, ZNF268 / Fold change vs veh, ZNF268 / Fold change vs veh, ZNF507 / RFU, DGCR2 / Fold change vs veh, DGCR2 / RFU, WDSUB1 / Fold change vs veh, WDSUB1 / Fold change vs veh, HSP90B1 /// MIR3652 / RFU, ADSS / Fold change vs veh, ADSS / RFU, GK / Fold change vs veh, GK / RFU, ZNF148 / Fold change vs veh, ZNF148 / RFU, TAF9 / Fold change vs veh, TAF9 / RFU, SLC1A5 / Fold change vs veh, SLC1A5 / RFU, SLMO2 / Fold change vs veh, SLMO2 / RFU, ABCC4 / Fold change vs veh, ABCC4 / RFU, LOC101060439 /// RAP1B / Fold change vs veh, LOC101060439 /// RAP1B / RFU, RFX7 / Fold change vs veh, RFX7 / RFU, GTPBP10 / Fold change vs veh, GTPBP10 / RFU, CNEP1R1 / Fold change vs veh, CNEP1R1 / RFU, BIVM-ERCC5 /// ERCC5 / Fold change vs veh, BIVM-ERCC5 /// ERCC5 / RFU, ILF3 / Fold change vs veh, ILF3 / RFU 11762660_at / Fold change /veh 11762660_at / RFU VCAN (11757783_s_at) / Fold change /veh VCAN (11757783_s_at) / RFU DDX43 (11728927_at) / Fold change /veh DDX43 (11728927_at) / RFU KRT8 (11758188_x_at) / Fold change /veh KRT8 (11758188_x_at) / RFU NKD1 (11759106_at) / Fold change /veh NKD1 (11759106_at) / RFU SRD5A1 (11742802_a_at) / Fold change /veh SRD5A1 (11742802_a_at) / RFU TPSAB1 /// TPSB2 (11721975_s_at) / Fold change /veh TPSAB1 /// TPSB2 (11721975_s_at) / RFU GSTM3 (11746129_a_at) / Fold change /veh GSTM3 (11746129_a_at) / RFU IL23R (11737362_x_at) / Fold change /veh IL23R (11737362_x_at) / RFU TMEM51 (11727254_a_at) / Fold change /veh TMEM51 (11727254_a_at) / RFU PIWIL2 (11732686_x_at) / Fold change /veh PIWIL2 (11732686_x_at) / RFU ORM1 (11744905_x_at) / Fold change /veh ORM1 (11744905_x_at) / RFU CCDC152 (11743942_at) / Fold change /veh CCDC152 (11743942_at) / RFU ECM1 (11717891_a_at) / Fold change /veh ECM1 (11717891_a_at) / RFU IL23R (11748794_a_at) / Fold change /veh IL23R (11748794_a_at) / RFU TNFAIP8L3 (11732012_x_at) / Fold change /veh TNFAIP8L3 (11732012_x_at) / RFU MBOAT4 (11741988_at) / Fold change /veh MBOAT4 (11741988_at) / RFU 11764193_at / Fold change /veh 11764193_at / RFU TMEM53 (11763286_at) / Fold change /veh TMEM53 (11763286_at) / RFU MAGEB2 (11727129_at) / Fold change /veh MAGEB2 (11727129_at) / RFU TMEM200A (11744735_a_at) / Fold change /veh TMEM200A (11744735_a_at) / RFU CCDC152 (11751479_a_at) / Fold change /veh CCDC152 (11751479_a_at) / RFU FAM211A (11726209_a_at) / Fold change /veh FAM211A (11726209_a_at) / RFU RGS16 (11746705_a_at) / Fold change /veh RGS16 (11746705_a_at) / RFU VCAN (11755009_s_at) / Fold change /veh VCAN (11755009_s_at) / RFU RHOB (11743442_s_at) / Fold change /veh RHOB (11743442_s_at) / RFU RGS16 (11720943_a_at) / Fold change /veh RGS16 (11720943_a_at) / RFU RGS16 (11720944_at) / Fold change /veh RGS16 (11720944_at) / RFU, VPS4B / Fold change vs veh, VPS4B / RFU, CREB1 / Fold change vs veh, CREB1 / RFU, DNAJC13 / Fold change vs veh, DNAJC13 / RFU, GNAQ / Fold change vs veh, GNAQ / RFU, CDK5R1 / Fold change vs veh, CDK5R1 / RFU, ZRANB3 / Fold change vs veh, ZRANB3 / RFU, CUL4A / Fold change vs veh, CUL4A / RFU, CCNY / Fold change vs veh, CCNY / RFU, UFL1 / Fold change vs veh, UFL1 / RFU, COG3 / Fold change vs veh, COG3 / RFU, DIAPH2 / Fold change vs veh, DIAPH2 / RFU, SKA2 / Fold change vs veh, SKA2 / RFU, AFF3 / Fold change vs veh, AFF3 / RFU, LMF1 / Fold change vs veh, LMF1 / RFU, IPO11 / Fold change vs veh, IPO11 / RFU, DFFB / Fold change vs veh, DFFB / RFU, FOXP1 / Fold change vs veh, FOXP1 / RFU, CARD8 / Fold change vs veh, CARD8 / RFU, STRN3 / Fold change vs veh, STRN3 / RFU, ADK / Fold change vs veh, ADK / RFU, RASSF2 / Fold change vs veh, RASSF2 / RFU, WIPF1 / Fold change vs veh, WIPF1 / RFU, LARP1B / Fold change vs veh, LARP1B / RFU, RASA1 / Fold change vs veh, RASA1 / RFU, RB1 / Fold change vs veh, RB1 / RFU, PPFIA1 / Fold change vs veh, PPFIA1 / RFU, MAT2A / Fold change vs veh, MAT2A / RFU, CCT5 / Fold change vs veh, CCT5 / RFU, WDR92 / Fold change vs veh, WDR92 / RFU, CUX1 / Fold change vs veh, CUX1 / RFU, TTC7A / Fold change vs veh, TTC7A / RFU, TMEM135 / Fold change vs veh, TMEM135 / RFU, DEPTOR / Fold change vs veh, DEPTOR / RFU, CPM / Fold change vs veh, CPM / RFU, DNAJB6 / Fold change vs veh, DNAJB6 / RFU, CACNA2D3 / Fold change vs veh, CACNA2D3 / RFU, DTX4 / Fold change vs veh, DTX4 / RFU, TFCP2 / Fold change vs veh, TFCP2 / RFU, GMCL1 /// GMCL1P1 / Fold change vs veh, GMCL1 /// GMCL1P1 / RFU, AEBP2 / Fold change vs veh, AEBP2 / RFU, SNHG1 /// SNORD22 /// SNORD25 /// SNORD26 /// SNORD27 /// SNORD28 /// SNORD29 /// SNORD31 / Fold change vs veh, SNHG1 /// SNORD22 /// SNORD25 /// SNORD26 /// SNORD27 /// SNORD28 /// SNORD29 /// SNORD31 / Fold change (Aza/veh), C12orf56 (ProbeSet 11735607_a_at) / Fold change (ACY-1035/veh), C12orf56 (ProbeSet 11735607_a_at) / Fold change (Aza/veh), FGFR1OP (ProbeSet 11751329_s_at) / Fold change (ACY-1035/veh), FGFR1OP (ProbeSet 11751329_s_at) / Fold change (Aza/veh), VPS36 (ProbeSet 11739960_a_at) / Fold change (ACY-1035/veh), VPS36 (ProbeSet 11739960_a_at) / RFU SYPL1 (11715823_x_at) / Fold change /veh SYPL1 (11715823_x_at) / RFU IGFBP7 (11715501_s_at) / Fold change /veh IGFBP7 (11715501_s_at) / RFU REEP3 (11722064_at) / Fold change /veh REEP3 (11722064_at) / RFU IGLL1 (11728026_x_at) / Fold change /veh IGLL1 (11728026_x_at): dose or concentration left out as unconfirmed",
  "conditions": "MV-4-11 cells, 48 hours",
  "data": [
    {"smiles": "Nc1ccc(-c2cccs2)cc1NC(=O)c1ccc2c(c1)cc(C1CC1)n2CCN1CCOCC1", "note": "[ACY-1035]", "values": [
      {"measurement": "RFU CYB561 (11721691_x_at)", "result": 11.94, "unit": "RFU"}
    ]}
  ]
}
